Like-named read-outs stand apart in the source and are kept apart here.
Assays:
Test in all cases: Kinase binding screen
Conditions in all cases: read-out: Percent Control at 100 nM Compound Concentration
GAK = GAK (Homo sapiens (Human), UniProt O14976)
ACVR2B = ACVR2B (Homo sapiens (Human), UniProt Q13705)
PIK3CA = PIK3CA (Homo sapiens (Human), UniProt P42336)
PIK4CB = PIK4CB (Homo sapiens (Human), UniProt Q9UBF8)
AKT3 = AKT3 (Homo sapiens (Human), UniProt Q9Y243)
SIK2 = SIK2 (Homo sapiens (Human), UniProt Q9H0K1)
GRK7 = GRK7 (Homo sapiens (Human), UniProt Q8WTQ7)
EPHB6 = EPHB6 (Homo sapiens (Human), UniProt O15197)
CDK9 = CDK9 (Homo sapiens (Human), UniProt P50750)
TRKA = TRKA (Homo sapiens (Human), UniProt P04629)
CSF1R = CSF1R (Homo sapiens (Human), UniProt P07333)
EPHA4 = EPHA4 (Homo sapiens (Human), UniProt P54764)
EGFR(T790M) = EGFR(T790M) (Homo sapiens (Human), UniProt P00533, T790M)
MARK3 = MARK3 (Homo sapiens (Human), UniProt P27448)
STK16 = STK16 (Homo sapiens (Human), UniProt O75716)
PAK6 = PAK6 (Homo sapiens (Human), UniProt Q9NQU5)
CSNK1D = CSNK1D (Homo sapiens (Human), UniProt P48730)
MLK3 = MLK3 (Homo sapiens (Human), UniProt Q16584)
RET(V804L) = RET(V804L) (Homo sapiens (Human), UniProt P07949, V804L)
TEC = TEC (Homo sapiens (Human), UniProt P42680)
DAPK2 = DAPK2 (Homo sapiens (Human), UniProt Q9UIK4)
MAPKAPK5 = MAPKAPK5 (Homo sapiens (Human), UniProt Q8IW41)
KIT = KIT (Homo sapiens (Human), UniProt P10721)
DAPK3 = DAPK3 (Homo sapiens (Human), UniProt O43293)
[1] = target: ABL1(M351T)-phosphorylated (Homo sapiens (Human), UniProt P00519, M351T)
DMPK2 = DMPK2 (Homo sapiens (Human), UniProt Q6DT37)
ITK = ITK (Homo sapiens (Human), UniProt Q08881)
[2] = target: ABL1(Q252H)-nonphosphorylated (Homo sapiens (Human), UniProt P00519, Q252H)
MAP3K3 = MAP3K3 (Homo sapiens (Human), UniProt Q99759)

Sequence of TRKA (P04629 33-796): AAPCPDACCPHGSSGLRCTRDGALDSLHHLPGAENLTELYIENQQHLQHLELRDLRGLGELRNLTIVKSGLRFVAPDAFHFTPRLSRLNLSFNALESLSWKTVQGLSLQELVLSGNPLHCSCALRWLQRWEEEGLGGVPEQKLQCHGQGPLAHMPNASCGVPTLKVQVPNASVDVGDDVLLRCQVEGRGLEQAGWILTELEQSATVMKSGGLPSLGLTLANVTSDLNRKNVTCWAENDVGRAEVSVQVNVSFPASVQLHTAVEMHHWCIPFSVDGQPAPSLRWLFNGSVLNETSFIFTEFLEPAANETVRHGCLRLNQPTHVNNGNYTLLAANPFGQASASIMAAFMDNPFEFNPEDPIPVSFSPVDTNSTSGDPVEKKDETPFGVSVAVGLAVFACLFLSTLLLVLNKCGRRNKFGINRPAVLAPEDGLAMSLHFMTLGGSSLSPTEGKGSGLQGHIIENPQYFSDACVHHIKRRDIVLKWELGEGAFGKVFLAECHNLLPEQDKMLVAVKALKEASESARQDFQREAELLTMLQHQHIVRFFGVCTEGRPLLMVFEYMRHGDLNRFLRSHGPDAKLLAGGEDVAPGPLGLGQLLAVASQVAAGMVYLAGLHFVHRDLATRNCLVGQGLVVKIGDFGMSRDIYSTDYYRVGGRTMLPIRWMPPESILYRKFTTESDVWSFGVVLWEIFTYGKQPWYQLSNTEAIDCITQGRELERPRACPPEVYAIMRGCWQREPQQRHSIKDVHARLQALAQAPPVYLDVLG
Sequence of SIK2 (Q9H0K1 whole entry): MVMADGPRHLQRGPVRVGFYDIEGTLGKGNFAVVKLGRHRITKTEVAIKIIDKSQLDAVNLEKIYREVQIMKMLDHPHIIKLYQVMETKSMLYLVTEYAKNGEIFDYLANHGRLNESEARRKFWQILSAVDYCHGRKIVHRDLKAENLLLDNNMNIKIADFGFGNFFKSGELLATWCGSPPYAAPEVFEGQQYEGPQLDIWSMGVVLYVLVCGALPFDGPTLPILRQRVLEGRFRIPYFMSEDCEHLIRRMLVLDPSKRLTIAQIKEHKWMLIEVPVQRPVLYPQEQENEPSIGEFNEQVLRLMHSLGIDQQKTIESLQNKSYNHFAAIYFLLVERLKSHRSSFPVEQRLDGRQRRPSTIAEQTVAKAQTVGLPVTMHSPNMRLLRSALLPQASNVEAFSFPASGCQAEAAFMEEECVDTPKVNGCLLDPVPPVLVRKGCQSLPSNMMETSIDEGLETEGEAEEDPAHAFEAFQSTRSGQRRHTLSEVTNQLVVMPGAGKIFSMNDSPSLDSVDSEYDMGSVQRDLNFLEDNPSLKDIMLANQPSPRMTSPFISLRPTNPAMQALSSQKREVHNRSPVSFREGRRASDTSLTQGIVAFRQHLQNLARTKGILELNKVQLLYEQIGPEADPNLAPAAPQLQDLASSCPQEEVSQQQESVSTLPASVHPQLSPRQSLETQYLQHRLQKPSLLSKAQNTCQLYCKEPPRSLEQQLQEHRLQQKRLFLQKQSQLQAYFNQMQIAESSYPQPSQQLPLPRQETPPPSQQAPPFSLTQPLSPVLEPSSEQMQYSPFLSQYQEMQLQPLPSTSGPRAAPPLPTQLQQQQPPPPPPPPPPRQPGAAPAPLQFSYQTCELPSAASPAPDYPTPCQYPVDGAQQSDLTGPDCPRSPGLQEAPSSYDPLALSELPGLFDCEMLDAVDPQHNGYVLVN
Sequence of MAPKAPK5 (Q8IW41 whole entry): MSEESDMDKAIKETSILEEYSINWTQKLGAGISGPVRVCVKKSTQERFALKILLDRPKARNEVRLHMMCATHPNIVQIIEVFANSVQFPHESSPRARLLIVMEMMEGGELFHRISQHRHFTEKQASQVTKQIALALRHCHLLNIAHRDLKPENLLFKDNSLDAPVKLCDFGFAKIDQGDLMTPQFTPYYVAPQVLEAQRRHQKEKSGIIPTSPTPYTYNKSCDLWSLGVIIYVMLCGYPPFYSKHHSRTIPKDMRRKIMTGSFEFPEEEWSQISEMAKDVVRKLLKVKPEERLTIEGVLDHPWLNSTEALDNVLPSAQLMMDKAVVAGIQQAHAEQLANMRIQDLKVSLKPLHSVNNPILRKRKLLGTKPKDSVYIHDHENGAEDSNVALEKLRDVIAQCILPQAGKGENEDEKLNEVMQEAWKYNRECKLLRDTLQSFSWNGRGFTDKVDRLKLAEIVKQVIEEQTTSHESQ
Sequence of RET(V804L) (P07949 29-1114 V804L): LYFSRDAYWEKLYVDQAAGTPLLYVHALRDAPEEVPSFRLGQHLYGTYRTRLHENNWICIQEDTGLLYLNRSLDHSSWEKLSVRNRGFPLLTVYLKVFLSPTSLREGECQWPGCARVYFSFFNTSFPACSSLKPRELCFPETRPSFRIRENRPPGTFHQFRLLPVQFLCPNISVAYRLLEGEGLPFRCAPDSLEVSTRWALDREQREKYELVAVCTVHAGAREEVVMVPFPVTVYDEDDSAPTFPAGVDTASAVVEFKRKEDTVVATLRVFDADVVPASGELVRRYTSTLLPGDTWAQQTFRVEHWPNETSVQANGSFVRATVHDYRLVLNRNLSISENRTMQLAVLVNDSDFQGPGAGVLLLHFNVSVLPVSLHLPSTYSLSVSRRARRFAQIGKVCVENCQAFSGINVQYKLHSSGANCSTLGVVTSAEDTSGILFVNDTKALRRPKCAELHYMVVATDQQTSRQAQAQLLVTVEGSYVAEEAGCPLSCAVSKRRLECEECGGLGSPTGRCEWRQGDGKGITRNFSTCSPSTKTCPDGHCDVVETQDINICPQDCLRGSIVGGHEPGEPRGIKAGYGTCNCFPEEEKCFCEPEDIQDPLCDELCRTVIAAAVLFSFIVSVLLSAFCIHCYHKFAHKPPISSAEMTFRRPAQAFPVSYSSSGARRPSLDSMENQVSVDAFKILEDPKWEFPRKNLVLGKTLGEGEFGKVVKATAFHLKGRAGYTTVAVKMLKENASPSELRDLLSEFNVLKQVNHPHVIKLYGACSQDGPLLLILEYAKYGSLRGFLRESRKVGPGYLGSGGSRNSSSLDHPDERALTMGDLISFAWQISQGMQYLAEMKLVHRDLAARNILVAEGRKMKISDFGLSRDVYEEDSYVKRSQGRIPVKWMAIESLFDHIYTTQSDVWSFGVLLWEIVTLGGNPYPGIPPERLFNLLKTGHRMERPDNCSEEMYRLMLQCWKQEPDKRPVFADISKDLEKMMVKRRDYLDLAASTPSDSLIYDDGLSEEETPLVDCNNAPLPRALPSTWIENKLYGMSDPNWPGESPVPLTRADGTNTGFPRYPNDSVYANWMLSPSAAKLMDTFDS
Sequence of CDK9 (P50750 whole entry): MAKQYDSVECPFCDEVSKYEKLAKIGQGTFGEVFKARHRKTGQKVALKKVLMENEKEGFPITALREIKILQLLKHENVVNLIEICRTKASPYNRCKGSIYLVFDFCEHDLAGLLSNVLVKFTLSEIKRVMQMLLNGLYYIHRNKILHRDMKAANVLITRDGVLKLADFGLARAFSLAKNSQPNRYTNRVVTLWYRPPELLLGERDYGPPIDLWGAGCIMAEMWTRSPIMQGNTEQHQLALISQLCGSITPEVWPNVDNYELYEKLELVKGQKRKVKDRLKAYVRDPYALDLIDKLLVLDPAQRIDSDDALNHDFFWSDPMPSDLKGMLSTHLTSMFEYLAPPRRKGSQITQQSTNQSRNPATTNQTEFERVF
Sequence of GAK (O14976 whole entry): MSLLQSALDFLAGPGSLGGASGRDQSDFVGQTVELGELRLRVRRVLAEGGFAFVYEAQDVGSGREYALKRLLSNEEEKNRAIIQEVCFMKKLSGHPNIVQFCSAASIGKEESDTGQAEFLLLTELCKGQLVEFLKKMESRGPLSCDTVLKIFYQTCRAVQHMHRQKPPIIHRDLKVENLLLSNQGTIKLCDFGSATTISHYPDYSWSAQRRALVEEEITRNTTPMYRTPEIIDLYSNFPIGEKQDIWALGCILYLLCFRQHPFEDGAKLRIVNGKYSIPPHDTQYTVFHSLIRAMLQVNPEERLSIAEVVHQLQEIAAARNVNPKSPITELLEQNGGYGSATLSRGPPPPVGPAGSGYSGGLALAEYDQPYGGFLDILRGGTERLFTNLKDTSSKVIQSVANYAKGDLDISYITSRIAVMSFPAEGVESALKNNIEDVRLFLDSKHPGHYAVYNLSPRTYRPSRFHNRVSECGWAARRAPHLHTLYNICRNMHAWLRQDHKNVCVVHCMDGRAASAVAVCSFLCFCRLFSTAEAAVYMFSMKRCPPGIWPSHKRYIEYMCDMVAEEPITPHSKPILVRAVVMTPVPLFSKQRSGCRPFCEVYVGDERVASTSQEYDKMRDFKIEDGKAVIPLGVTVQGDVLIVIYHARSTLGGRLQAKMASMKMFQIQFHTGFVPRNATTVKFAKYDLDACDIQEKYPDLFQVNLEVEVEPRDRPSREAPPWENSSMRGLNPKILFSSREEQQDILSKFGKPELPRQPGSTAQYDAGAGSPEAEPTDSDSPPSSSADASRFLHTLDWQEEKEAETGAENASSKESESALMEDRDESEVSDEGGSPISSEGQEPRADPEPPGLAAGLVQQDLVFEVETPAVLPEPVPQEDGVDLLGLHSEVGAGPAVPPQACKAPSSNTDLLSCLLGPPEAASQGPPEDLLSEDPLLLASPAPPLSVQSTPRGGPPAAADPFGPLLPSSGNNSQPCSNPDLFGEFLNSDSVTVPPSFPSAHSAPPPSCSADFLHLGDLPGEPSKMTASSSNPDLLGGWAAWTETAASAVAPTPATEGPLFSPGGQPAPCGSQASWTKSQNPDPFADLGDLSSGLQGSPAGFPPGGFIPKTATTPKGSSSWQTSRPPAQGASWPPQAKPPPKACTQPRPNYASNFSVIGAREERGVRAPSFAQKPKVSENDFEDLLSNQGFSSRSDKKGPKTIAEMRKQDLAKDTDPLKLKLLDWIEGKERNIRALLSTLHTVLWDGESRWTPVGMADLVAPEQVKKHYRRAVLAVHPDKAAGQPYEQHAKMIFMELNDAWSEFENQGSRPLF

CN(C[C@@H](O)Cc1ccccc1)C(=O)c1cncc(C#Cc2cnn(C(F)F)c2)c1 [Example 2, (S)-5-((1-(difluoromethyl)-1H-pyrazol-4-yl)ethynyl)-N-(2-hydroxy-3-phenylpropyl)-N-methylnicotinamide]
remaining activity at 0.1 µM (GAK; GAK): 100% | remaining activity at 0.1 µM (ACVR2B; ACVR2B): 91% | remaining activity at 0.1 µM (PIK3CA; PIK3CA): 100% | remaining activity at 0.1 µM (PIK4CB; PIK4CB): 100% | remaining activity at 0.1 µM (AKT3; AKT3): 100% | remaining activity at 0.1 µM (SIK2; SIK2): 89% | remaining activity at 0.1 µM (GRK7; GRK7): 100% | remaining activity at 0.1 µM (EPHB6; EPHB6): 100% | remaining activity at 0.1 µM (CDK9; CDK9): 100% | remaining activity at 0.1 µM (TRKA; TRKA): 100% | remaining activity at 0.1 µM (CSF1R; CSF1R): 100% | remaining activity at 0.1 µM (EPHA4; EPHA4): 97% | remaining activity at 0.1 µM (EGFR(T790M); EGFR(T790M)): 100% | remaining activity at 0.1 µM (MARK3; MARK3): 98% | remaining activity at 0.1 µM (STK16; STK16): 98% | remaining activity at 0.1 µM (PAK6; PAK6): 85% | remaining activity at 0.1 µM (CSNK1D; CSNK1D): 100% | remaining activity at 0.1 µM (MLK3; MLK3): 95% | remaining activity at 0.1 µM (RET(V804L); RET(V804L)): 100% | remaining activity at 0.1 µM (TEC; TEC): 99% | remaining activity at 0.1 µM (DAPK2; DAPK2): 100% | remaining activity at 0.1 µM (MAPKAPK5; MAPKAPK5): 94% | remaining activity at 0.1 µM (KIT; KIT): 100% | remaining activity at 0.1 µM (DAPK3; DAPK3): 100% | remaining activity at 0.1 µM ([1]; ABL1(M351T)-phosphorylated): 86% | remaining activity at 0.1 µM (DMPK2; DMPK2): 97% | remaining activity at 0.1 µM (ITK; ITK): 99% | remaining activity at 0.1 µM ([2]; ABL1(Q252H)-nonphosphorylated): 92% | remaining activity at 0.1 µM (MAP3K3; MAP3K3): 96%

CN(C[C@H](Cc1ccccc1)OP(=O)(O)O)C(=O)c1cncc(C#Cc2cnn(C(F)F)c2)c1 [Example 19, (S)-1-(5-((1-(difluoromethyl)-1H-pyrazol-4-yl)ethynyl)-N-methylnicotinamido)-3-phenylpropan-2-yl dihydrogen phosphate]
remaining activity at 0.1 µM (GAK): 100% | remaining activity at 0.1 µM (ACVR2B): 99% | remaining activity at 0.1 µM (PIK3CA): 100% | remaining activity at 0.1 µM (PIK4CB): 98% | remaining activity at 0.1 µM (AKT3): 100% | remaining activity at 0.1 µM (SIK2): 96% | remaining activity at 0.1 µM (GRK7): 100% | remaining activity at 0.1 µM (EPHB6): 100% | remaining activity at 0.1 µM (CDK9): 100% | remaining activity at 0.1 µM (TRKA): 81% | remaining activity at 0.1 µM (CSF1R): 100% | remaining activity at 0.1 µM (EPHA4): 96% | remaining activity at 0.1 µM (EGFR(T790M)): 100% | remaining activity at 0.1 µM (MARK3): 97% | remaining activity at 0.1 µM (STK16): 92% | remaining activity at 0.1 µM (PAK6): 80% | remaining activity at 0.1 µM (CSNK1D): 100% | remaining activity at 0.1 µM (MLK3): 89% | remaining activity at 0.1 µM (RET(V804L)): 100% | remaining activity at 0.1 µM (TEC): 93% | remaining activity at 0.1 µM (DAPK2): 90% | remaining activity at 0.1 µM (MAPKAPK5): 96% | remaining activity at 0.1 µM (KIT): 99% | remaining activity at 0.1 µM (DAPK3): 97% | remaining activity at 0.1 µM [1]: 97% | remaining activity at 0.1 µM (DMPK2): 96% | remaining activity at 0.1 µM (ITK): 100% | remaining activity at 0.1 µM [2]: 100% | remaining activity at 0.1 µM (MAP3K3): 92%

Reference: patent US11767310B2, “Nicotinamide RIPK1 inhibitors” (AbbVie Inc., priority 2021, dated 2023)
